Reference: ChEMBL document CHEMBL4304799, “Primaquine homodimers as potential antiplasmodial and anticancer agents” (Bioorg Med Chem Lett, 2019)
Active and inactive are the calls of the source. The rule behind the calls is not given here.

Tested on: Plasmodium berghei
Assay: Antiplasmodial activity against liver stage luciferase expressing Plasmodium berghei sporozoites infected in human Huh7 cells preincubated with host cells for 1 hr followed by plasmodium infection at 1 and 10 uM
Assay type: functional, organism-based
Details: not given

Compound | Activity
COc1cc(NC(C)CCCNC(=O)CCCC(=O)NCCCC(C)Nc2cc(OC)cc3cccnc23)c2ncccc2c1 (centres undefined) | Active
COc1cc(NC(C)CCCNC(=O)CCC(=O)NCCCC(C)Nc2cc(OC)cc3cccnc23)c2ncccc2c1 (centres undefined) | Active
COc1cc(NC(C)CCCNC(=O)/C=C\C(=O)NCCCC(C)Nc2cc(OC)cc3cccnc23)c2ncccc2c1 (centres undefined) | Active
COc1cc(NC(C)CCCNC(=O)CCCCCCC(=O)NCCCC(C)Nc2cc(OC)cc3cccnc23)c2ncccc2c1 (centres undefined) | Active
COc1cc(NC(C)CCCNC(=O)/C=C/C(=O)NCCCC(C)Nc2cc(OC)cc3cccnc23)c2ncccc2c1 (centres undefined) | Active
COc1cc(NC(C)CCCN)c2ncccc2c1 (centres undefined) [PRIMAQUINE PHOSPHATE] | Active
COc1cc(NC(C)CCCNC(=O)CCCCC(=O)NCCCC(C)Nc2cc(OC)cc3cccnc23)c2ncccc2c1 (centres undefined) | Active

Tested on: Plasmodium falciparum
Assay: Antiplasmodial activity against asexual chloroquine sensitive blood stage Plasmodium falciparum 3D7 measured as HRP2 levels after 3 days by ELISA
Assay type: functional, organism-based
Details: 3D7, 72 h

Compound | IC50
COc1cc(NC(C)CCCNC(=O)CCCC(=O)NCCCC(C)Nc2cc(OC)cc3cccnc23)c2ncccc2c1 (centres undefined) | 16.5 µM
COc1cc(NC(C)CCCNC(=O)CCC(=O)NCCCC(C)Nc2cc(OC)cc3cccnc23)c2ncccc2c1 (centres undefined) | 17.2 µM
COc1cc(NC(C)CCCNC(=O)CCCCCCC(=O)NCCCC(C)Nc2cc(OC)cc3cccnc23)c2ncccc2c1 (centres undefined) | 23.1 µM
COc1cc(NC(C)CCCNC(=O)/C=C/C(=O)NCCCC(C)Nc2cc(OC)cc3cccnc23)c2ncccc2c1 (centres undefined) | 14.6 µM
COc1cc(NC(C)CCCN)c2ncccc2c1 (centres undefined) [PRIMAQUINE PHOSPHATE] | 1.3 µM
COc1cc(NC(C)CCCNC(=O)CCCCC(=O)NCCCC(C)Nc2cc(OC)cc3cccnc23)c2ncccc2c1 (centres undefined) | > 27.7 µM

Tested on: Plasmodium falciparum
Assay: Antiplasmodial activity against asexual chloroquine resistant blood stage Plasmodium falciparum Dd2 measured as HRP2 levels after 3 days by ELISA
Assay type: functional, organism-based
Details: Dd2, 72 h

Compound | IC50
COc1cc(NC(C)CCCNC(=O)CCCC(=O)NCCCC(C)Nc2cc(OC)cc3cccnc23)c2ncccc2c1 (centres undefined) | > 27.7 µM
COc1cc(NC(C)CCCNC(=O)CCC(=O)NCCCC(C)Nc2cc(OC)cc3cccnc23)c2ncccc2c1 (centres undefined) | > 27.7 µM
COc1cc(NC(C)CCCNC(=O)CCCCCCC(=O)NCCCC(C)Nc2cc(OC)cc3cccnc23)c2ncccc2c1 (centres undefined) | 12.7 µM
COc1cc(NC(C)CCCNC(=O)/C=C/C(=O)NCCCC(C)Nc2cc(OC)cc3cccnc23)c2ncccc2c1 (centres undefined) | > 27.7 µM
COc1cc(NC(C)CCCN)c2ncccc2c1 (centres undefined) [PRIMAQUINE PHOSPHATE] | 1.9 µM
COc1cc(NC(C)CCCNC(=O)CCCCC(=O)NCCCC(C)Nc2cc(OC)cc3cccnc23)c2ncccc2c1 (centres undefined) | > 27.7 µM

Tested on: MCF7
Assay: Antiproliferative activity against human MCF7 cells measured after 72 hrs by MTT assay
Assay type: functional, cell-based
Details: MCF7, 72 h

Compound | IC50
COc1cc(NC(C)CCCNC(=O)CCCC(=O)NCCCC(C)Nc2cc(OC)cc3cccnc23)c2ncccc2c1 (centres undefined) | 3.37 µM
COc1cc(NC(C)CCCNC(=O)CCC(=O)NCCCC(C)Nc2cc(OC)cc3cccnc23)c2ncccc2c1 (centres undefined) | 2.82 µM
COc1cc(NC(C)CCCNC(=O)/C=C\C(=O)NCCCC(C)Nc2cc(OC)cc3cccnc23)c2ncccc2c1 (centres undefined) | 3.14 µM
COc1cc(NC(C)CCCNC(=O)/C=C(\C)C(=O)NCCCC(C)Nc2cc(OC)cc3cccnc23)c2ncccc2c1 (centres undefined) | 2.36 µM
COc1cccc2c1C(=O)c1c(O)c3c(c(O)c1C2=O)C[C@@](O)(C(=O)CO)C[C@@H]3O[C@H]1C[C@H](N)[C@H](O)[C@H](C)O1 [DOXORUBICIN] | 0.01 µM
COc1cc(NC(C)CCCNC(=O)CCCCCC(=O)NCCCC(C)Nc2cc(OC)cc3cccnc23)c2ncccc2c1 (centres undefined) | 3.04 µM
COc1cc(NC(C)CCCNC(=O)CCCCCCC(=O)NCCCC(C)Nc2cc(OC)cc3cccnc23)c2ncccc2c1 (centres undefined) | 1.85 µM
COc1cc(NC(C)CCCNC(=O)/C=C/C(=O)NCCCC(C)Nc2cc(OC)cc3cccnc23)c2ncccc2c1 (centres undefined) | 9.3 µM
COc1cc(NC(C)CCCN)c2ncccc2c1 (centres undefined) [PRIMAQUINE PHOSPHATE] | 8.73 µM
COc1cc(NC(C)CCCNC(=O)CCCCC(=O)NCCCC(C)Nc2cc(OC)cc3cccnc23)c2ncccc2c1 (centres undefined) | 1.78 µM

Tested on: HCT-116
Assay: Antiproliferative activity against human HCT116 cells measured after 72 hrs by MTT assay
Assay type: functional, cell-based
Details: HCT-116, 72 h

Compound | IC50
COc1cc(NC(C)CCCNC(=O)CCCC(=O)NCCCC(C)Nc2cc(OC)cc3cccnc23)c2ncccc2c1 (centres undefined) | 16.9 µM
COc1cc(NC(C)CCCNC(=O)CCC(=O)NCCCC(C)Nc2cc(OC)cc3cccnc23)c2ncccc2c1 (centres undefined) | 11.3 µM
COc1cc(NC(C)CCCNC(=O)/C=C\C(=O)NCCCC(C)Nc2cc(OC)cc3cccnc23)c2ncccc2c1 (centres undefined) | 9.19 µM
COc1cc(NC(C)CCCNC(=O)/C=C(\C)C(=O)NCCCC(C)Nc2cc(OC)cc3cccnc23)c2ncccc2c1 (centres undefined) | 4.31 µM
COc1cccc2c1C(=O)c1c(O)c3c(c(O)c1C2=O)C[C@@](O)(C(=O)CO)C[C@@H]3O[C@H]1C[C@H](N)[C@H](O)[C@H](C)O1 [DOXORUBICIN] | 0.01 µM
COc1cc(NC(C)CCCNC(=O)CCCCCC(=O)NCCCC(C)Nc2cc(OC)cc3cccnc23)c2ncccc2c1 (centres undefined) | 26.1 µM
COc1cc(NC(C)CCCNC(=O)CCCCCCC(=O)NCCCC(C)Nc2cc(OC)cc3cccnc23)c2ncccc2c1 (centres undefined) | ≥ 100 µM
COc1cc(NC(C)CCCNC(=O)/C=C/C(=O)NCCCC(C)Nc2cc(OC)cc3cccnc23)c2ncccc2c1 (centres undefined) | ≥ 100 µM
COc1cc(NC(C)CCCN)c2ncccc2c1 (centres undefined) [PRIMAQUINE PHOSPHATE] | 14 µM
COc1cc(NC(C)CCCNC(=O)CCCCC(=O)NCCCC(C)Nc2cc(OC)cc3cccnc23)c2ncccc2c1 (centres undefined) | 13.7 µM

Tested on: NCI-H460
Assay: Antiproliferative activity against human H460 cells measured after 72 hrs by MTT assay
Assay type: functional, cell-based
Details: NCI-H460, 72 h

Compound | IC50
COc1cc(NC(C)CCCNC(=O)CCCC(=O)NCCCC(C)Nc2cc(OC)cc3cccnc23)c2ncccc2c1 (centres undefined) | 10.3 µM
COc1cc(NC(C)CCCNC(=O)CCC(=O)NCCCC(C)Nc2cc(OC)cc3cccnc23)c2ncccc2c1 (centres undefined) | 18.5 µM
COc1cc(NC(C)CCCNC(=O)/C=C\C(=O)NCCCC(C)Nc2cc(OC)cc3cccnc23)c2ncccc2c1 (centres undefined) | 14.1 µM
COc1cc(NC(C)CCCNC(=O)/C=C(\C)C(=O)NCCCC(C)Nc2cc(OC)cc3cccnc23)c2ncccc2c1 (centres undefined) | 1.63 µM
COc1cccc2c1C(=O)c1c(O)c3c(c(O)c1C2=O)C[C@@](O)(C(=O)CO)C[C@@H]3O[C@H]1C[C@H](N)[C@H](O)[C@H](C)O1 [DOXORUBICIN] | 0.003 µM
COc1cc(NC(C)CCCNC(=O)CCCCCC(=O)NCCCC(C)Nc2cc(OC)cc3cccnc23)c2ncccc2c1 (centres undefined) | 26.7 µM
COc1cc(NC(C)CCCNC(=O)CCCCCCC(=O)NCCCC(C)Nc2cc(OC)cc3cccnc23)c2ncccc2c1 (centres undefined) | ≥ 100 µM
COc1cc(NC(C)CCCNC(=O)/C=C/C(=O)NCCCC(C)Nc2cc(OC)cc3cccnc23)c2ncccc2c1 (centres undefined) | ≥ 100 µM
COc1cc(NC(C)CCCN)c2ncccc2c1 (centres undefined) [PRIMAQUINE PHOSPHATE] | 19.8 µM
COc1cc(NC(C)CCCNC(=O)CCCCC(=O)NCCCC(C)Nc2cc(OC)cc3cccnc23)c2ncccc2c1 (centres undefined) | 2.49 µM

Tested on: HEK293
Assay: Antiproliferative activity against human HEK293 cells measured after 72 hrs by MTT assay
Assay type: cell-based
Details: HEK293, 72 h

Compound | IC50
COc1cc(NC(C)CCCNC(=O)CCCC(=O)NCCCC(C)Nc2cc(OC)cc3cccnc23)c2ncccc2c1 (centres undefined) | 26.4 µM
COc1cc(NC(C)CCCNC(=O)CCC(=O)NCCCC(C)Nc2cc(OC)cc3cccnc23)c2ncccc2c1 (centres undefined) | 2.25 µM
COc1cc(NC(C)CCCNC(=O)/C=C\C(=O)NCCCC(C)Nc2cc(OC)cc3cccnc23)c2ncccc2c1 (centres undefined) | 17.5 µM
COc1cc(NC(C)CCCNC(=O)/C=C(\C)C(=O)NCCCC(C)Nc2cc(OC)cc3cccnc23)c2ncccc2c1 (centres undefined) | 10 µM
COc1cccc2c1C(=O)c1c(O)c3c(c(O)c1C2=O)C[C@@](O)(C(=O)CO)C[C@@H]3O[C@H]1C[C@H](N)[C@H](O)[C@H](C)O1 [DOXORUBICIN] | 0.018 µM
COc1cc(NC(C)CCCNC(=O)CCCCCC(=O)NCCCC(C)Nc2cc(OC)cc3cccnc23)c2ncccc2c1 (centres undefined) | 94.9 µM
COc1cc(NC(C)CCCNC(=O)CCCCCCC(=O)NCCCC(C)Nc2cc(OC)cc3cccnc23)c2ncccc2c1 (centres undefined) | ≥ 100 µM
COc1cc(NC(C)CCCNC(=O)/C=C/C(=O)NCCCC(C)Nc2cc(OC)cc3cccnc23)c2ncccc2c1 (centres undefined) | ≥ 100 µM
COc1cc(NC(C)CCCN)c2ncccc2c1 (centres undefined) [PRIMAQUINE PHOSPHATE] | 11 µM
COc1cc(NC(C)CCCNC(=O)CCCCC(=O)NCCCC(C)Nc2cc(OC)cc3cccnc23)c2ncccc2c1 (centres undefined) | ≥ 100 µM

Tested on: not listed separately
Assay: Selectivity index, ratio of IC50 for HEK293 cells to IC50 for human MCF7 cells
Assay type: toxicity
Details: HEK293 cells versus MCF7 cells, read-out: Ratio IC50

Compound | selectivity ratio
COc1cc(NC(C)CCCNC(=O)CCCC(=O)NCCCC(C)Nc2cc(OC)cc3cccnc23)c2ncccc2c1 (centres undefined) | 1.6 to 31
COc1cc(NC(C)CCCNC(=O)/C=C\C(=O)NCCCC(C)Nc2cc(OC)cc3cccnc23)c2ncccc2c1 (centres undefined) | 1.6 to 31
COc1cc(NC(C)CCCNC(=O)CCCCCC(=O)NCCCC(C)Nc2cc(OC)cc3cccnc23)c2ncccc2c1 (centres undefined) | 1.6 to 31
COc1cc(NC(C)CCCNC(=O)CCCCC(=O)NCCCC(C)Nc2cc(OC)cc3cccnc23)c2ncccc2c1 (centres undefined) | 7.3 to 56

Tested on: not listed separately
Assay: Selectivity index, ratio of IC50 for HEK293 cells to IC50 for human HCT116 cells
Assay type: toxicity
Details: HEK293 cells versus HCT116 cells, read-out: Ratio IC50

Compound | selectivity ratio
COc1cc(NC(C)CCCNC(=O)CCCC(=O)NCCCC(C)Nc2cc(OC)cc3cccnc23)c2ncccc2c1 (centres undefined) | 1.6 to 31
COc1cc(NC(C)CCCNC(=O)/C=C\C(=O)NCCCC(C)Nc2cc(OC)cc3cccnc23)c2ncccc2c1 (centres undefined) | 1.6 to 31
COc1cc(NC(C)CCCNC(=O)CCCCCC(=O)NCCCC(C)Nc2cc(OC)cc3cccnc23)c2ncccc2c1 (centres undefined) | 1.6 to 31
COc1cc(NC(C)CCCNC(=O)CCCCC(=O)NCCCC(C)Nc2cc(OC)cc3cccnc23)c2ncccc2c1 (centres undefined) | 7.3 to 56

Tested on: not listed separately
Assay: Selectivity index, ratio of IC50 for HEK293 cells to IC50 for human H460 cells
Assay type: toxicity
Details: HEK293 cells versus H460 cells, read-out: Ratio IC50

Compound | selectivity ratio
COc1cc(NC(C)CCCNC(=O)CCCC(=O)NCCCC(C)Nc2cc(OC)cc3cccnc23)c2ncccc2c1 (centres undefined) | 1.6 to 31
COc1cc(NC(C)CCCNC(=O)/C=C\C(=O)NCCCC(C)Nc2cc(OC)cc3cccnc23)c2ncccc2c1 (centres undefined) | 1.6 to 31
COc1cc(NC(C)CCCNC(=O)CCCCCC(=O)NCCCC(C)Nc2cc(OC)cc3cccnc23)c2ncccc2c1 (centres undefined) | 1.6 to 31
COc1cc(NC(C)CCCNC(=O)CCCCC(=O)NCCCC(C)Nc2cc(OC)cc3cccnc23)c2ncccc2c1 (centres undefined) | 7.3 to 56

Tested on: Plasmodium berghei
Assay: Antiplasmodial activity against liver stage luciferase expressing Plasmodium berghei sporozoites infected in human Huh7 cells preincubated with host cells for 1 hr followed by plasmodium infection
Assay type: functional, organism-based
Details: Huh-7

Compound | IC50
COc1cc(NC(C)CCCNC(=O)CCC(=O)NCCCC(C)Nc2cc(OC)cc3cccnc23)c2ncccc2c1 (centres undefined) | 0.726 µM
COc1cc(NC(C)CCCNC(=O)/C=C\C(=O)NCCCC(C)Nc2cc(OC)cc3cccnc23)c2ncccc2c1 (centres undefined) | 0.358 µM
COc1cc(NC(C)CCCNC(=O)/C=C/C(=O)NCCCC(C)Nc2cc(OC)cc3cccnc23)c2ncccc2c1 (centres undefined) | 0.198 µM
